Values of other authors in patent US20200022905A1 (priority 2009, published 2020).
Like-named read-outs stand apart in the source and are kept apart here.

Tests used:
[1] = not given; remark: listed apart in the source
[2] = especially by non-smokers

In the case of `CN1CCCC1c1cccnc1` (stereo not shown) [Nicotine], the “time to get to the brain after smoke inhalation” value is listed as “ten to twenty”, the “ratio of non-ionized form” value ([1]; pH 7.4) is listed as 30% and the “ratio of non-ionized form” value ([1]; pH 8.5) is listed as 80%. The “dose after which serious toxic reactions may be experienced” value [2] was 4 to 8 mg.
